Results published in patent US3980794A, “Method for promoting growth of poultry with 3-(5-nitro-2-imidazolyl)pyrazoles” (Eli Lilly and Company, priority 1975, dated 1976).
Values after ≈ are worked out from the molar mass of the structure shown.

Assays:
[1] = tested on: Peptostreptococcus intermedius 1264; test: Susceptibility of anaerobic bacteria, agar dilution; format: cell-based; conditions: 24 h; Peptostreptococcus intermedius 1264; read-out: 24 Hr. Minimum Inhibitory Concentration
[2] = tested on: Eubacterium aerofaciens 1235; test: as above; format: cell-based; conditions: Collinsella aerofaciens, 1235, 24 h, read-out: 24 Hr. Minimum Inhibitory Concentration
[3] = tested on: Bacteroides fragilis sp. thetaiotaomicron 1438; test: as above; format: cell-based; conditions: Bacteroides fragilis, 24 h, read-out: 24 Hr. Minimum Inhibitory Concentration
[4] = tested on: Bacteroides fragilis sp. vulgatus 1211; test: as above; format: cell-based; conditions: Bacteroides fragilis, 24 h, read-out: 24 Hr. Minimum Inhibitory Concentration
[5] = tested on: Veillonella alcalescens 1; test: as above; format: cell-based; conditions: Veillonella parvula, 1, 24 h, read-out: 24 Hr. Minimum Inhibitory Concentration
[6] = tested on: Bacteroides fragilis sp. fragilis 1936B; test: as above; format: cell-based; conditions: Bacteroides fragilis, 24 h, read-out: 24 Hr. Minimum Inhibitory Concentration
[7] = tested on: Fusobacterium necrophorum 13859; test: as above; format: cell-based; conditions: Fusobacterium necrophorum, 13859, 24 h, read-out: 24 Hr. Minimum Inhibitory Concentration
Actinomyces bovis 13684 = test: as above; format: cell-based; conditions: Actinomyces bovis, 13684, 24 h, read-out: 24 Hr. Minimum Inhibitory Concentration
[8] = tested on: Propionibacterium acnes 79; test: as above; format: cell-based; conditions: Cutibacterium acnes, 79, 24 h, read-out: 24 Hr. Minimum Inhibitory Concentration
[9] = tested on: Clostridium innocuum 1373; test: as above; format: cell-based; conditions: [Clostridium] innocuum, 1373, 24 h, read-out: 24 Hr. Minimum Inhibitory Concentration
[10] = tested on: Fusobacterium symbiosum 1470; test: as above; format: cell-based; conditions: Fusobacterium, 1470, 24 h, read-out: 24 Hr. Minimum Inhibitory Concentration
[11] = tested on: Clostridium septicum bovine; test: as above; format: cell-based; conditions: 24 h, read-out: 24 Hr. Minimum Inhibitory Concentration
Experimental: (§1) The susceptibility of anaerobic bacteria, both gram positive and gram negative, to a representative number of the novel compounds of this application was determined using the agar dilution method. The bacteria used were isolated from patients hospitalized at the Indiana University Medical Center. The isolates were identified in the anaerobe laboratory of the Medical Center by the criteria established by Dowell et al., Laboratory Methods in Anaerobic Bacteriology. Public Health Serv. Publ. No. 1803 (1968) [Center for Disease Control, Atlanta, Ga.]; and by Smith et al., The Pathogenic Anaerobic Bacteria, pages 96-136 (1968) [Charles C. Thomas, Publisher, Springfield, Ill.]. All the organisms were maintained in chopped meat glucose medium (Scott Labs) at room temperature.
(§2) The method used for the agar dilution tests was based on the studies of Sutter et al., Antimicrob. Ag. Chemother. 3, 188-193 (1973). The strains of anaerobic bacteria were grown in 16 × 120 mm. tubes for 16 to 18 hours in Thioglycolate medium without indicator--135C (Becton, Dickinson and Co.), to which was added 5 mcg. of hemin per milliliter prior to autoclaving, plus 1 mg. of sodium bicarbonate and 0.1 mcg. of filter-sterilized menadione per milliliter after autoclaving. The growth tubes for the bacteria Veillonella alcalescens were additionally supplemented with 5 mg. of sodium lactate per milliliter. The strains were adjusted to the turbidity of the No. 1 McFarland standard in Thioglycolate medium without indicator--135C containing an additional 0.13 percent Bacto-agar (Difco). Each strain was then applied to the surface of the petri plate (100 mm. × 15 mm.) by means of a replicator.
(§3) For the agar dilution studies, two-fold dilutions of the test compounds were prepared in deionized water to which was then added laked sheep blood and filter-sterilized menadione so the concentrations after the agar dilution were 5 percent and 10 mcg./ml. respectively. An equal volume of double strength Brucella agar (Becton, Dickinson and Co.) was mixed with each dilution in a water bath held at 50°C. and then poured onto the petri plates.
(§4) All of the procedures were done inside a plastic glove box, except for the incubation of the growth tubes and the pouring of the plates. After the plates hardened, they were put inside the glove box for a minimum of two hours before they were inoculated. Generally, the glove box procedures of Aranki et al., Applied Microbiology 17, 568-576 (1969), were followed, but the following modifications were used. Dry materials were introduced into the glove box by evacuating the lock to 28 inches of mercury and filling once with nitrogen gas, followed by evacuating in the same manner and filling with an 80 percent nitrogen plus 10 percent CO2 plus 10 percent hydrogen gas mixture. Liquid media and agar plates were introduced into the glove box by evacuating the lock to 10 inches of mercury and filling with gas four times. The nitrogen gas was used to fill the lock for the first two cycles of evacuation, with the gas mixture described above used for the final two fillings.
(§5) All the plates were incubated at 37°C. in Gas Pak jars (Becton, Dickinson and Co.) containing palladium-coated alumina catalysts (reactivated after each use). The results of the agar dilution tests were read after about 24 hours of incubation. The minimum inhibitory concentration (MIC) was recorded as the lowest concentration of test compound at which there was no growth.
(§6) The results of these in vitro tests are recorded in Charts 11 and 12 which follow. The test compounds are identified in the same manner as in the previous experiments. The antibiotics cephalothin and erythromycin were also run simultaneously with the novel compounds of this application, for comparison purposes, and the results are included in Charts 11 and 12 below.

[12] = tested on: Clostridium septicum 1128; test: as above; format: cell-based; conditions: 24 h, read-out: 24 Hr. Minimum Inhibitory Concentration
Experimental: as §1, §2, §3, §4, §5, §6

[13] = tested on: Bacteroides fragilis sp. fragilis 1877; test: as above; format: cell-based; conditions: Bacteroides fragilis, 24 h, read-out: 24 Hr. Minimum Inhibitory Concentration
[14] = tested on: Propionibacterium acnes 44; test: as above; format: cell-based; conditions: Cutibacterium acnes, 24 h; Propionibacterium acnes 44; read-out: 24 Hr. Minimum Inhibitory Concentration
[15] = tested on: Bacteroides fragilis sp. vulgatus 1563; test: as above; format: cell-based; conditions: Bacteroides fragilis, 24 h, read-out: 24 Hr. Minimum Inhibitory Concentration
[16] = tested on: Clostridium perfringens 81; test: microbe, parasite or virus in culture; format: cell-based; conditions: Clostridium perfringens, 81, 24 h, read-out: 24 Hr. Minimum Inhibitory Concentration
[17] = tested on: Peptococcus anaerobius 1428; test: Susceptibility of anaerobic bacteria, agar dilution; format: cell-based; conditions: 24 h, read-out: 24 Hr. Minimum Inhibitory Concentration
Clostridium ramosum 1313 = test: as above; format: cell-based; conditions: Thomasclavelia ramosa, 1313, 24 h, read-out: 24 Hr. Minimum Inhibitory Concentration
Salmonella typhimurium = test: Control of infections caused by Salmonella typhimurium in chickens, subcutaneous (Experiment 2); format: in vivo; conditions: Salmonella enterica, sc, 144 h, 6 days, read-out: Survival Ratio (converted); for responders at 7.5 mg/kg: 7.5 mg./kg. subcutaneous; for responders at 15 mg/kg: 15 mg./kg. subcutaneous; for responders at 30 mg/kg: 30 mg./kg. subcutaneous; for responders at 60 mg/kg: 60 mg./kg. subcutaneous
Experimental: The efficacy of the novel compounds in the control of infections caused by Salmonella typhimurium in chickens was evaluated in the following manner.
The test was carried out using day-old chicks weighing approximately 35 g. each. The chicks were divided into groups of 5 chicks per each dosage level. A portion of the chicks received the test compound which was suspended in 0.2 ml. of polyethylene glycol 200 and administered subcutanusly in the neck. […] All the chicks were challenged with a 1:200 dilution of a culture of the organism, 0.1 ml. of the dilution being injected into each chick in the leg intramuscularly. […] The test compounds are identified in the same manner as set forth in Experiment 1.
In the chart, column 1 lists the compounds tested; column 2, the dosage of test compound in mg./kg.; and column 3, the survival ratio.

**Q.** What does the source list for `CC=CC=Nc1c(C#N)c(-c2ncc([N+](=O)[O-])n2C)nn1C` [Compound 18, 5-(2-butenylideneamino)-1-methyl-3-(1-methyl-5-nitro-2-imidazolyl)pyrazole-4-carbonitrile]?
**A.** MIC [1]: 0.25 mg/L (≈ 0.835 µM); MIC [2]: < 0.125 mg/L; MIC [3]: < 0.125 mg/L; MIC [4]: < 0.125 mg/L; MIC [5]: < 0.125 mg/L; MIC [6]: < 0.125 mg/L; MIC [7]: < 0.125 mg/L; MIC (Actinomyces bovis 13684): < 0.125 mg/L; MIC [8]: < 0.125 mg/L; MIC [9]: < 0.125 mg/L; MIC [10]: < 0.125 mg/L; MIC [11]: < 0.125 mg/L; MIC [12]: < 0.125 mg/L; MIC [13]: < 0.125 mg/L; MIC [14]: > 32 mg/L; MIC [15]: < 0.125 mg/L; MIC [16]: < 0.125 mg/L; MIC [17]: < 0.125 mg/L; MIC (Clostridium ramosum 1313): < 0.125 mg/L; responders at 7.5 mg/kg (Salmonella typhimurium): 0%; responders at 15 mg/kg (Salmonella typhimurium): 53.3%; responders at 30 mg/kg (Salmonella typhimurium): 66.7%; responders at 60 mg/kg (Salmonella typhimurium): 66.7%

**Q.** How did the MIC [1] turn out when `Cn1c([N+](=O)[O-])cnc1-c1nn(CCO)c(N)c1C#N` [Compound 14, 5-Amino-1-(2-hydroxyethyl)-3-(1-methyl-5-nitro-2-imidazolyl)pyrazole-4-carbonitrile] was run?
**A.** Its MIC is 1 mg/L (≈ 3.61 µM).

**Q.** What about the MIC [2] of the same compound?
**A.** Its MIC is less than 0.125 mg/L.

**Q.** And the MIC [3]?
**A.** Its MIC is less than 0.125 mg/L.

**Q.** What about the MIC [4] of the same compound?
**A.** Its MIC is less than 0.125 mg/L.

**Q.** What about the MIC [5] of the same compound?
**A.** The MIC was less than 0.125 mg/L.

**Q.** What about the MIC [6] of the same compound?
**A.** The MIC was less than 0.125 mg/L.

**Q.** What about the MIC [7] of the same compound?
**A.** The MIC was less than 0.125 mg/L.

**Q.** And the MIC (Actinomyces bovis 13684)?
**A.** The MIC was less than 0.125 mg/L.

**Q.** What about the MIC [8] of the same compound?
**A.** Its MIC is less than 0.125 mg/L.

**Q.** What about the MIC [9] of the same compound?
**A.** Its MIC is less than 0.125 mg/L.

**Q.** And the MIC [10]?
**A.** Its MIC is less than 0.125 mg/L.

**Q.** What about the MIC [11] of the same compound?
**A.** Its MIC is less than 0.125 mg/L.

**Q.** And the MIC [12]?
**A.** The MIC was less than 0.125 mg/L.

**Q.** And the MIC [13]?
**A.** Its MIC is less than 0.125 mg/L.

**Q.** What about the MIC [14] of the same compound?
**A.** Its MIC is greater than 32 mg/L.

**Q.** What about the MIC [15] of the same compound?
**A.** The MIC was less than 0.125 mg/L.

**Q.** What about the MIC [16] of the same compound?
**A.** The MIC was less than 0.125 mg/L.

**Q.** What about the MIC [17] of the same compound?
**A.** The MIC was less than 0.125 mg/L.

**Q.** What about the MIC (Clostridium ramosum 1313) of the same compound?
**A.** Its MIC is less than 0.125 mg/L.

**Q.** And the responders at 7.5 mg/kg (Salmonella typhimurium)?
**A.** The responders at 7.5 mg/kg was 20%.

**Q.** What about the responders at 15 mg/kg (Salmonella typhimurium) of the same compound?
**A.** The responders at 15 mg/kg was 6.67%.

**Q.** And the responders at 30 mg/kg (Salmonella typhimurium)?
**A.** Its responders at 30 mg/kg is 40%.

**Q.** What about the responders at 60 mg/kg (Salmonella typhimurium) of the same compound?
**A.** Its responders at 60 mg/kg is 93.3%.

**Q.** Which MIC [1] does the source give for `CCCn1nc(-c2ncc([N+](=O)[O-])n2C)c(C#N)c1N` [Compound 22, 5-Amino-1-(n-propyl)-3-(1-methyl-5-nitro-2-imidazolyl)pyrazole-4-carbonitrile] here?
**A.** Its MIC is 1 mg/L (≈ 3.63 µM).

**Q.** What about the MIC [2] of the same compound?
**A.** Its MIC is less than 0.125 mg/L.

**Q.** What about the MIC [3] of the same compound?
**A.** Its MIC is less than 0.125 mg/L.

**Q.** What about the MIC [4] of the same compound?
**A.** The MIC was less than 0.125 mg/L.

**Q.** What about the MIC [5] of the same compound?
**A.** The MIC was less than 0.125 mg/L.

**Q.** What about the MIC [6] of the same compound?
**A.** The MIC was less than 0.125 mg/L.

**Q.** What about the MIC [7] of the same compound?
**A.** The MIC was less than 0.125 mg/L.

**Q.** And the MIC (Actinomyces bovis 13684)?
**A.** The MIC was less than 0.125 mg/L.

**Q.** What about the MIC [8] of the same compound?
**A.** The MIC was less than 0.125 mg/L.

**Q.** What about the MIC [9] of the same compound?
**A.** The MIC was less than 0.125 mg/L.

**Q.** And the MIC [10]?
**A.** Its MIC is less than 0.125 mg/L.

**Q.** What about the MIC [11] of the same compound?
**A.** Its MIC is less than 0.125 mg/L.

**Q.** And the MIC [12]?
**A.** The MIC was less than 0.125 mg/L.

**Q.** And the MIC [13]?
**A.** Its MIC is less than 0.125 mg/L.

**Q.** And the MIC [14]?
**A.** Its MIC is greater than 32 mg/L.

**Q.** What about the MIC [15] of the same compound?
**A.** The MIC was less than 0.125 mg/L.

**Q.** And the MIC [16]?
**A.** The MIC was less than 0.125 mg/L.

**Q.** What about the MIC [17] of the same compound?
**A.** The MIC was less than 0.125 mg/L.

**Q.** What about the MIC (Clostridium ramosum 1313) of the same compound?
**A.** The MIC was less than 0.125 mg/L.
